Key:
[1] = target: T1, ternary SpNatC (Schizosaccharomyces pombe, UniProt O74311+Q9USY3); test: isothermal titration calorimetry; type: binding
T1 sequence (O74311 1-150): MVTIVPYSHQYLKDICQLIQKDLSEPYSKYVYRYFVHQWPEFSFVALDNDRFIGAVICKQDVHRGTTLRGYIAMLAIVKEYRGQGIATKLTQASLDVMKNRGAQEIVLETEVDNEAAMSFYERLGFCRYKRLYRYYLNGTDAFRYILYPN
T1 sequence (Q9USY3 31-708): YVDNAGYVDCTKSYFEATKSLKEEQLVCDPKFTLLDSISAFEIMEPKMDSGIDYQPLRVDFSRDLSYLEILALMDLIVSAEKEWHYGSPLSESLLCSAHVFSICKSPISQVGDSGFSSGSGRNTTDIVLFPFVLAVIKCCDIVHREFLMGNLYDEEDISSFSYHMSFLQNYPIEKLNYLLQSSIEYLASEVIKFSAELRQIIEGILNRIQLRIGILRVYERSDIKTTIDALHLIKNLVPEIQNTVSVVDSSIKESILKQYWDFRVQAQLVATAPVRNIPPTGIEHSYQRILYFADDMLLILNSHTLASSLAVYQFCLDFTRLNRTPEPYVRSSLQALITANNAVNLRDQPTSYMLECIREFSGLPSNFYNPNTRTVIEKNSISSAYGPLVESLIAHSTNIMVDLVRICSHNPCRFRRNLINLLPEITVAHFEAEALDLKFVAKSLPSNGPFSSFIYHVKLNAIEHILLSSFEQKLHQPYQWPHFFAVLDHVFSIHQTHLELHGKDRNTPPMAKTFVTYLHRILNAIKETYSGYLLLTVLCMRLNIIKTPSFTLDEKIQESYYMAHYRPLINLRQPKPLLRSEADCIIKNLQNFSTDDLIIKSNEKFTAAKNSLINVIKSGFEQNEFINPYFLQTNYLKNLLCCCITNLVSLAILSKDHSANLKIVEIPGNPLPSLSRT
T1 sequence (O43080 4-72 partner limits assumed): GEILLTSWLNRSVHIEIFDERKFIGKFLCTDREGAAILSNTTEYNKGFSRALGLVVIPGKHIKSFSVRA

[2] = target: T2, SpNatA (Schizosaccharomyces pombe, UniProt O74985+Q9UTI3); test: […] acetyltransferase assay with and without IP6; type: biochemical; conditions: 2 μM IP6, 50 μM Ac-CoA, 50 μM SASE peptide, pH 7.0, room temperature
T2 sequence (Q9UTI3 1-156): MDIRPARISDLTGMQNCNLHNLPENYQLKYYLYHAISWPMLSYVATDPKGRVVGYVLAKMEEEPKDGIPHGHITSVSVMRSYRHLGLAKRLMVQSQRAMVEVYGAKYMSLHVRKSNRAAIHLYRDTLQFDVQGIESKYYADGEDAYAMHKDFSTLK
T2 sequence (O74985 1-729): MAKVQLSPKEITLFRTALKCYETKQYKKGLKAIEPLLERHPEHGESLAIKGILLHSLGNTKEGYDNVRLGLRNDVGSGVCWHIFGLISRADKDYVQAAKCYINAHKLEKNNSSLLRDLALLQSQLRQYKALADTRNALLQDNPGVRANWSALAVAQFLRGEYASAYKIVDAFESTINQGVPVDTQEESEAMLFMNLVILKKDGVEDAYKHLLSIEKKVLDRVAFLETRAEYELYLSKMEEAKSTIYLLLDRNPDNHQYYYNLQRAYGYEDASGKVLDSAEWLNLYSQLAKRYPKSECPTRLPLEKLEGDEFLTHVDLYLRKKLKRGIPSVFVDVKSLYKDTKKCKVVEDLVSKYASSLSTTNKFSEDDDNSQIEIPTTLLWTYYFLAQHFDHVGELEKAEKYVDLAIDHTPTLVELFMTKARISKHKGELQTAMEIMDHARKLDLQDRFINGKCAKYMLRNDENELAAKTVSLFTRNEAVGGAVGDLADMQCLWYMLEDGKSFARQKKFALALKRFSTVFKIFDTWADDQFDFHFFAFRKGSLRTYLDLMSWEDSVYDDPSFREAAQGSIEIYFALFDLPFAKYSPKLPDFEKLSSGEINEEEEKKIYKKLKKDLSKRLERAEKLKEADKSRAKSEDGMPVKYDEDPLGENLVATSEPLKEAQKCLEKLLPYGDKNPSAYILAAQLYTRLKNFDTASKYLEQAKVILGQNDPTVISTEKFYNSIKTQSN

[3] = target: hNatB (Homo sapiens, UniProt P61599); test: […] acetyltransferase assay with and without IP6; type: biochemical; conditions: 2 μM IP6, 50 μM Ac-CoA, 50 μM MDVF peptide, pH 7.0, room temperature
Chain of hNatB (P61599 1-163): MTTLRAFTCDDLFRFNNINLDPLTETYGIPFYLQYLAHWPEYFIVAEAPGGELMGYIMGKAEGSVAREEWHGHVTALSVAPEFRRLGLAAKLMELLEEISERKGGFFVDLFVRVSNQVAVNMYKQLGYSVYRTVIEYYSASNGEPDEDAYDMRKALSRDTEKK
Chain of hNatB (Q14CX7 whole entry partner): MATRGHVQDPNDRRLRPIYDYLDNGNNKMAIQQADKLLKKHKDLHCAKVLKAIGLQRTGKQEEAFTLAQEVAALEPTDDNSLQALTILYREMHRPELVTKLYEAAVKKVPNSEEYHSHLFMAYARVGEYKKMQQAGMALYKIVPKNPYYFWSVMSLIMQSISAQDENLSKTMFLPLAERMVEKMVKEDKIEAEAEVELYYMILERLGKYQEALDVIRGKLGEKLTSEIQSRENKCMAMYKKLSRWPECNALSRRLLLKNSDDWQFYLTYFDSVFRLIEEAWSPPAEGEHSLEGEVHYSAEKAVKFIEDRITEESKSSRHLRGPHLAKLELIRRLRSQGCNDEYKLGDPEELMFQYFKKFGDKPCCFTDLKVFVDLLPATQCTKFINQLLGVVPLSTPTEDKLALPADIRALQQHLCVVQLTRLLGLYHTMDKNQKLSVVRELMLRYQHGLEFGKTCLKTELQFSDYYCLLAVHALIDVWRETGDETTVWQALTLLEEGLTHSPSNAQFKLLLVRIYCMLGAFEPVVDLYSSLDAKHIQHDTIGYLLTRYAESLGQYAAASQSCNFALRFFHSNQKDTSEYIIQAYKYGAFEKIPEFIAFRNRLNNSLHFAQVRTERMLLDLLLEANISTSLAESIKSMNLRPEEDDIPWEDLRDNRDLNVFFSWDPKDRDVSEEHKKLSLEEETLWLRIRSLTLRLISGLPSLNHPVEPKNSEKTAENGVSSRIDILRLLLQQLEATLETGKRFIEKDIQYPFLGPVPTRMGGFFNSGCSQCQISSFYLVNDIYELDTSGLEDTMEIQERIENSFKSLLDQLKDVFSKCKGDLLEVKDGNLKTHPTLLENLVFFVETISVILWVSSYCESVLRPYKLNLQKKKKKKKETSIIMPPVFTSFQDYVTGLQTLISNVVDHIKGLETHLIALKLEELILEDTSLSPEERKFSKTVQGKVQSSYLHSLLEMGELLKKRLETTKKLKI

Kd [1]: ~225 nM
Structure (SMILES): O=P(O)(O)O[C@H]1[C@H](OP(=O)(O)O)[C@@H](OP(=O)(O)O)[C@H](OP(=O)(O)O)[C@@H](OP(=O)(O)O)[C@H]1OP(=O)(O)O [IP6, inositol hexaphosphate]
modest inhibition at 2 μM [2]: produced a relatively modest inhibitory effect, as it also did for SpNatA and hNatB | modest inhibition at 2 μM [3]: produced a relatively modest inhibitory effect, as it also did for SpNatA and hNatB

Reference: article PMC8500922 (Structure (London, England : 1993), 2021)
